According to patent publication US5204352A, “Compounds exhibiting anti-parasitic activity and a method for their use” (The United States of America as represented by the …, priority 1987, dated 1993):

Tested on: Trypanosoma rhodesiense
Assay: In vivo trypanocidal activity in infected mice (protocol based on Rane et al.)
Design: Activity at dosage, value in parentheses (increase in survival): unit not given here
Settings: for Activity at dosage (C = Cures) / Activity at dosage, value in parentheses (increase in survival): peritoneal (Table 2)
Procedure: The compounds of the present invention were evaluated biologically in vivo with groups of 5 mice at various dose levels. Unless otherwise indicated, the data are for subcutaneous administration. Dose levels marked with an asterisk are for peritoneal administration in a HEC+T medium. In addition, Table 2 present results of peritoneal administration with substituted quanylhydrazones. The biological evaluation was done according to a standard protocol based on the method described by Rane et al., Amer. J. Trop. Med Hyg. 25:395 (1976). […]

[1] = 6.6* mg/kg, peritoneal in HEC+T medium (Table I)

## Cc1ccc2n(c1)cc(-c1ccc(C=NNC(=N)N)cc1)[n+]2C [BK13078]
0.21 mg/kg, subcutaneous
  Increase in survival: 5.3 days
  Trypanocidal activity, cures: 2/5
0.42 mg/kg, subcutaneous
  Increase in survival: 7.0 days
  Trypanocidal activity, cures: 4/5
0.8 mg/kg
  Activity at dosage (C = Cures): INAC
0.83 mg/kg, subcutaneous
  Trypanocidal activity, cures: 10/10
1.66 mg/kg, subcutaneous
  Increase in survival: 11.0 days
  Trypanocidal activity, cures: 9/10
1.7 mg/kg
  Activity at dosage (C = Cures): INAC
3.3 mg/kg
  Activity at dosage, value in parentheses (increase in survival): 1.0
3.3 mg/kg, subcutaneous
  Increase in survival: 1.0 days
3.33 mg/kg, subcutaneous
  Trypanocidal activity, cures: 5/5
6.65 mg/kg, subcutaneous
  Trypanocidal activity, cures: 5/5
6.7 mg/kg
  Activity at dosage, value in parentheses (increase in survival): 7.0
13.3 mg/kg, subcutaneous
  Trypanocidal activity, cures: 10/10
26 mg/kg
  Activity at dosage, value in parentheses (increase in survival): 10.6
26.5 mg/kg, subcutaneous
  Trypanocidal activity, cures: 15/15
424 mg/kg
  Activity at dosage, value in parentheses (increase in survival): 12.5
[1]
  Increase in survival: 7.0 days
  Trypanocidal activity, cures: 3/5
13* mg/kg, peritoneal in HEC+T medium (Table I)
  Trypanocidal activity, cures: 10/10
26* mg/kg, peritoneal in HEC+T medium (Table I)
  Trypanocidal activity, cures: 13/15
53* mg/kg, peritoneal in HEC+T medium (Table I)
  Trypanocidal activity, cures: 10/10
106* mg/kg, peritoneal in HEC+T medium (Table I)
  Trypanocidal activity, cures: 10/10
212* mg/kg, peritoneal in HEC+T medium (Table I)
  Trypanocidal activity, cures: 5/5

## Cc1ccc2n(c1)cc(-c1ccc(C(N)=NO)cc1)[n+]2C [BK13087]
53 mg/kg, subcutaneous
  Increase in survival: 2.3 days
  Trypanocidal activity, cures: 2/5

## C[n+]1c(-c2ccc(C(=N)N)cc2)cn2ccccc21 [BK16471]
13.3 mg/kg, subcutaneous
  Increase in survival: 3.2 days
  Trypanocidal activity, cures: 2/10
26.5 mg/kg, subcutaneous
  Trypanocidal activity, cures: 10/10
53 mg/kg, subcutaneous
  Trypanocidal activity, cures: 5/5

## C[n+]1c(-c2ccc(C(N)=NO)cc2)cn2ccsc21 [BK16499]
26 mg/kg, subcutaneous
  Increase in survival: 2.7 days
  Trypanocidal activity, cures: 2/10
53 mg/kg, subcutaneous
  Increase in survival: 4.7 days
  Trypanocidal activity, cures: 2/10

## C[n+]1c(-c2ccc(C(=N)N)cc2)cn2ccsc21 [BK21874]
26.5 mg/kg, subcutaneous
  Increase in survival: 3.6 days
  Trypanocidal activity, cures: 1/10
53 mg/kg, subcutaneous
  Increase in survival: 2.5 days
  Trypanocidal activity, cures: 2/5
106 mg/kg, subcutaneous
  Increase in survival: 12.9 days
  Trypanocidal activity, cures: 9/10
212 mg/kg, subcutaneous
  Trypanocidal activity, cures: 5/5

## C[n+]1c(-c2ccc(C=NNC(=N)N)cc2)cn2ccsc21 [BK21909]
13.3 mg/kg, subcutaneous
  Trypanocidal activity, cures: 5/5

## C[n+]1c(-c2ccc(C=NNC(N)=O)cc2)cn2ccsc21 [BK21918]
26.5 mg/kg, subcutaneous
  Increase in survival: 4.8 days
53 mg/kg, subcutaneous
  Increase in survival: 4.5 days

## CCN(CC)CCNC(=N)c1ccc(-c2cn3ccccc3[n+]2C)cc1 [BK23001]
13.3 mg/kg, subcutaneous
  Increase in survival: 6.6 days

## Cn1cc(-c2ccc(C=NNC(N)=O)cc2)[n+](C)c1 [BK23994]
424 mg/kg, subcutaneous
  Increase in survival: 5.8 days

## C=CC[n+]1c(-c2ccc(C=NNc3ncn[nH]3)cc2)cn2ccccc21 [BK24017]
26 mg/kg, subcutaneous
  Increase in survival: 2.3 days
  Trypanocidal activity, cures: 4/10
53 mg/kg, subcutaneous
  Increase in survival: 4.6 days

## C[n+]1c(-c2ccc(-c3n[nH]c(N)n3)cc2)cn2ccsc21 [BK42720]
26.5 mg/kg, subcutaneous
  Trypanocidal activity, cures: 5/5

## C[n+]1c(-c2ccc(C(=N)N)cc2)cn2cc(C(=N)N)ccc21 [BK42748]
26.5 mg/kg, subcutaneous
  Increase in survival: 2.3 days
  Trypanocidal activity, cures: 2/5
53 mg/kg, subcutaneous
  Increase in survival: 3.0 days
  Trypanocidal activity, cures: 2/5

## C[n+]1c(-c2ccc(C(=N)N)cc2)c([N+](=O)[O-])n2ccccc21 [BK42757]
53 mg/kg, subcutaneous
  Increase in survival: 2.5 days
  Trypanocidal activity, cures: 1/5
106 mg/kg, subcutaneous
  Increase in survival: 3.0 days
  Trypanocidal activity, cures: 1/5

## Cc1ccc2n(c1)cc(-c1ccc(C(=N)N)cc1)[n+]2C [BK46166]
26.5 mg/kg, subcutaneous
  Increase in survival: 4.5 days
  Trypanocidal activity, cures: 2/5
53 mg/kg, subcutaneous
  Increase in survival: 1.6 days
  Trypanocidal activity, cures: 2/5
106 mg/kg, subcutaneous
  Increase in survival: 5.2 days
  Trypanocidal activity, cures: 2/5

## CCN(CC)CCN=C(N)NN=Cc1ccc(-c2cn3ccccc3[n+]2C)cc1 [BK46175]
0.83 mg/kg, (F), subcutaneous
  Increase in survival: 3.3 days
  Trypanocidal activity, cures: 2/5
0.83 mg/kg, M, subcutaneous
  Increase in survival: 6.3 days

## C[n+]1c(-c2ccc(C(N)=NO)cc2)cn2cc(Cl)ccc21 [BK46193]
106 mg/kg, subcutaneous
  Increase in survival: 5.2 days
  Trypanocidal activity, cures: 1/5
212 mg/kg, subcutaneous
  Increase in survival: 2.9 days
  Trypanocidal activity, cures: 4/5

## CN=C(N)NN=Cc1ccc(-c2cn3ccccc3[n+]2C)cc1 [BK46200]
0.85-1.66 mg/kg, (M), subcutaneous
  Trypanocidal activity, cures: 5/5
3.33-6.65 mg/kg, (F), subcutaneous
  Trypanocidal activity, cures: 5/5

## Cc1ccn2cc(-c3ccc(C=NNC(=N)N)cc3)[n+](C)c2c1 [BK46219]
26.5 mg/kg, subcutaneous
  Increase in survival: 10.0 days
  Trypanocidal activity, cures: 8/10

## CSC(=N)NN=Cc1ccc(-c2cn3ccccc3[n+]2C)cc1 [BK47921]
26.5 mg/kg, subcutaneous
  Trypanocidal activity, cures: 5/5

## CN=C(N)NN=Cc1ccc(-c2c([N+](=O)[O-])n3ccccc3[n+]2C)cc1 [BK47958]
1.66 mg/kg, subcutaneous
  Increase in survival: 3.0 days
  Trypanocidal activity, cures: 8/10

## CN=C(N)NN=Cc1ccc(-c2cn3ccsc3[n+]2C)cc1 [BK47967]
6.66 mg/kg, subcutaneous
  Trypanocidal activity, cures: 5/5

## CN(C)C(=N)NN=Cc1ccc(-c2cn3ccccc3[n+]2C)cc1 [BK47976]
6.66 mg/kg, subcutaneous
  Trypanocidal activity, cures: 5/5

## C[n+]1c(-c2ccc(C=NNC(=N)N)cc2)c([N+](=O)[O-])n2ccccc21 [BK47985]
1.6 mg/kg, subcutaneous
  Increase in survival: 7.0 days
  Trypanocidal activity, cures: 3/10
3.3 mg/kg, subcutaneous
  Trypanocidal activity, cures: 5/5
6.6 mg/kg, subcutaneous
  Increase in survival: 24.0 days
  Trypanocidal activity, cures: 4/5

## CN(C)C(=N)NN=Cc1ccc(-c2c([N+](=O)[O-])n3ccccc3[n+]2C)cc1 [BK50268]
3.3 mg/kg
  Activity at dosage (C = Cures): INAC
6.7 mg/kg
  Activity at dosage (C = Cures): INAC
13 mg/kg
  Activity at dosage, value in parentheses (increase in survival): 4.5
26 mg/kg
  Activity at dosage, value in parentheses (increase in survival): 5.0
53 mg/kg
  Activity at dosage, value in parentheses (increase in survival): 9.9
106 mg/kg
  Activity at dosage, value in parentheses (increase in survival): 12.5

## C[n+]1c(-c2ccc(C=NNC(=N)N3CCCC3)cc2)cn2ccccc21 [BK50277]
0.1 mg/kg, subcutaneous
  Trypanocidal activity, cures: 5/5
0.2 mg/kg, subcutaneous
  Trypanocidal activity, cures: 4/5
0.4 mg/kg, subcutaneous
  Trypanocidal activity, cures: 5/5
0.8 mg/kg, subcutaneous
  Trypanocidal activity, cures: 9/10
1.7 mg/kg, subcutaneous
  Trypanocidal activity, cures: 10/10
3.3 mg/kg, subcutaneous
  Trypanocidal activity, cures: 5/5

## C[n+]1c(-c2ccc(C=NNc3nccs3)cc2)cn2ccccc21 [BK50302]
0.2 mg/kg, subcutaneous
  Increase in survival: 2.0 days
  Trypanocidal activity, cures: 3/5
0.4 mg/kg, subcutaneous
  Trypanocidal activity, cures: 5/5
0.8 mg/kg, subcutaneous
  Increase in survival: 15.0 days
  Trypanocidal activity, cures: 4/5
106 mg/kg
  Activity at dosage (C = Cures): INAC
212 mg/kg
  Activity at dosage (C = Cures): INAC
424 mg/kg
  Activity at dosage (C = Cures): INAC
